The results in this text go back to patent publication US12686668B2, “Leukotriene synthesis inhibitors” (Naegis Pharmaceuticals Inc., priority 2019, dated 2026).

Where two headings read alike, the source gives them in different places. Where only a bound is given, the exact number is not on record here.

Experiment [1] deals with LTB4 production in MC/9 cells. Nature of the experiment: MC/9 HPLC assay, inhibition of LTB4 production. As to conditions: Mus musculus. Format: cell-based. The essentials:
(§1)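 MC/9 cells (3×10^6 in HBSS) pre-incubated 30 min with compound, then stimulated 20 min at room temperature with 1 μM A23187. After methanol quench and C18 solid-phase extraction, LTB4 and LTC4 quantified by HPLC against reference standards; inhibition relative to control samples.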

Experiment [2] has as its system LTB4 production in porcine or human whole blood. Nature of the experiment: Whole blood HPLC assay, inhibition of LTB4 production. Format: cell-based. As to conditions: 5 point curve, porcine or human whole blood (not specified). A digest of the protocol: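 Porcine or human whole blood was pre-incubated 30 min with compound, then stimulated 20 min at room temperature with 20 μM A23187 (porcine blood also received 20 μM arachidonic acid). Plasma LTB4 was extracted on C18 and quantified by HPLC against reference standards. IC50 from a 5-point curve, with inhibition relative to controls.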

Experiment [3] addresses T1, recombinant human leukotriene A4 hydrolase enzyme (Homo sapiens, UniProt P09960).
T1 construct: purchased Cayman Chemical 10007817
T1 sequence (P09960 1-611): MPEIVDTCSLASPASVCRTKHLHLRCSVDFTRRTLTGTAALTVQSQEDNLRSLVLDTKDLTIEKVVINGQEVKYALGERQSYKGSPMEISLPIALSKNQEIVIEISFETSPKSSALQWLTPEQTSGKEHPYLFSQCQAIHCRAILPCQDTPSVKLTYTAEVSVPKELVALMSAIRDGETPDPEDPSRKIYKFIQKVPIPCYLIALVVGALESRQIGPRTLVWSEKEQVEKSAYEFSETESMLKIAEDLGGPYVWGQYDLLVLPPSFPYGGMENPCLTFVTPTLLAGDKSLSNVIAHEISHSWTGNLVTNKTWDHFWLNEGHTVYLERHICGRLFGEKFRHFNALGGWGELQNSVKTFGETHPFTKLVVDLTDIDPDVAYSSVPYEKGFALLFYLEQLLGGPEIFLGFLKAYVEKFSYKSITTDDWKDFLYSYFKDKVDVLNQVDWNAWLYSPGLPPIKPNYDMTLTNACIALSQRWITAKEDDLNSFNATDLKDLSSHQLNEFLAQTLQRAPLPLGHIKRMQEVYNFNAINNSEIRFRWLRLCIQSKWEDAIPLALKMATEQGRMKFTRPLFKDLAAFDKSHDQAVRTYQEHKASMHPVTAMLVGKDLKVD
Description: Amino-peptidase assay, alanine-4-nitroanalide. It is filed as biochemical. As to conditions: negative values = augmented peptidase activity, read-out: % Inhibition aminopeptidase-Alanine-4-nitroanalide activity of LTA4H (3 μM). The essentials: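 Compounds pre-incubated in the dark with recombinant human LTA4H (0.5 μg) in 50 mM Tris-HCl, 100 mM KCl; reaction started with alanine-4-nitroanilide (6 mM solution). Aminopeptidase rate followed as A405 from 4-nitroaniline, referenced to a standard; inhibition calculated versus controls, with negative values indicating augmented activity.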

The test system of experiment [4] is LTC4 production in MC/9 cells. Description: MC/9 HPLC assay, inhibition of LTC4 production. As to conditions: Mus musculus; for inhibition at 3 µM: MC9, 3 μM, A23187 stimulated. Format: cell-based. A digest of the protocol: as §1
Where [5] appears, read: MC9, Table 2 column 4, no concentration in head (1 μM according to b732), read-out: % Inhibition LTB4.
Where [6] appears, read: MC9, Table 2 column 3, no concentration in head (1 μM according to b732), read-out: % Inhibition LTC4.

With `CC(O)(CCc1ccc(OCc2ccc3ccccc3n2)cc1)C(F)(F)F` (stereo not drawn) [Compound 183, 1,1,1-trifluoro-2-methyl-4-[4-(quinolin-2-ylmethoxy)phenyl]butan-2-ol], the inhibition at 1 µM in experiment [1] (setting [5]) and in experiment [4] (setting [6]) was greater than 90% throughout. In addition, the IC50 in experiment [2] fell in the range of 100 to 1000 nM. For the same compound, the values for the inhibition at 3 µM in experiment [3] and in experiment [4] were greater than 75% and greater than 90%, respectively.
Regarding `CCC(O)(CCc1ccc(Oc2nc3c(SC)cccc3s2)c(OC)c1)C(F)(F)F` (stereo not drawn) [Compound 104, 1-{3-methoxy-4-[(4-methylsulfanyl-1,3-benzothiazol-2-yl)oxy]phenyl}-3-(trifluoromethyl)pentan-3-ol], the inhibition at 1 µM is 90% in experiment [1] (MC9, 1 μM, read-out: % inhibition LTB4 (1 μM)); greater than 90% in experiment [1] (setting [5]); 90% in experiment [4] (MC9, 1 μM, read-out: % inhibition LTC4 (1 μM)); greater than 90% in experiment [4] (setting [6]). For the same compound, the IC50 in experiment [2] was 100 to 1000 nM. The inhibition at 3 µM in experiment [3] was -50 to 100%; in experiment [4], greater than 90%.
